Source: ChEMBL document CHEMBL1201862, “PubChem BioAssay data set” (2004)
Where a name gives a salt, the structure may show the parent alone. Activity calls are given as the source filed them.

Assays:
[1] = target: Glutathione-S-transferase (Schistosoma japonicum, UniProt Q26513); assay: GST-antibody interaction or FRET quenching – biochemical, TR-FRET, artefact control for Vif-APOBEC3G degradation inhibitor project, dose response (AID 1117362); assay type: functional
[2] = target: Genome polyprotein (dengue virus type 2, UniProt P29990); assay: flavivirus cap methylation enzyme inhibition – biochemical, confirmation dose response, primary screen (AID 588689); assay type: functional
[3] = target: T1, RNA-binding protein pos-1 (Caenorhabditis elegans, UniProt G5EF15); assay: disruptors of C. elegans POS-1 RNA interaction – biochemical, fluorescence polarization, dose response (AID 1964);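 further: purified POS-1 fused to maltose binding protein made in E. coli; potency of compounds blocking POS-1 binding to fluorescent RNA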
T1 sequence (G5EF15 whole entry): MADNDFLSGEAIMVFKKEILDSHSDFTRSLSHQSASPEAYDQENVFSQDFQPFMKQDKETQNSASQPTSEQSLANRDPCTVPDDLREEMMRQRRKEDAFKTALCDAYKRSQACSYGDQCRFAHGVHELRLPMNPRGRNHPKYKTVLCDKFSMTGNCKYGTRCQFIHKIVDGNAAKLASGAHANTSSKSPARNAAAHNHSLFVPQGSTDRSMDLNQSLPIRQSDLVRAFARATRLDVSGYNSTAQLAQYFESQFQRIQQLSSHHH

[4] = DRD fibroblast viability loss – cell-based, non-viral oncogenic, luminescence, dose response (AID 1934); assay type: functional; details: Homo sapiens
[5] = system: Vero; assay: viability of Vero cells under compound – cytotoxicity control for flavivirus capping enzyme inhibitors (AID 588742); assay type: functional; details: Chlorocebus sabaeus
[6] = system: BJ; assay: BJ-TERT fibroblast viability loss – cell-based, RAS-independent, luminescence, dose response (AID 1933); assay type: functional; details: Homo sapiens
[7] = system: BJ; assay: cells; assay type: functional, cell-based; details: Homo sapiens
[8] = target: Protein Tat (Human immunodeficiency virus type 1 group M subtype B (isolate HXB2)(HIV-1), UniProt P04608); assay type: functional;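 further: tat binding to TAR RNA read out by fluorescence polarization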
[9] = viability loss in THP-1 monocytes – THP-1 cells, cytotoxicity control for Vif-APOBEC3G degradation inhibitor project, dose response (AID 1117359); assay type: functional; details: THP-1
[10] = target: T2, Zinc finger protein mex-5 (Caenorhabditis elegans, UniProt Q9XUB2); assay: potency of MEX-5 RNA-binding blockers – biochemical, C. elegans, fluorescence polarization, dose response (AID 1960)
T2 sequence (Q9XUB2 whole entry): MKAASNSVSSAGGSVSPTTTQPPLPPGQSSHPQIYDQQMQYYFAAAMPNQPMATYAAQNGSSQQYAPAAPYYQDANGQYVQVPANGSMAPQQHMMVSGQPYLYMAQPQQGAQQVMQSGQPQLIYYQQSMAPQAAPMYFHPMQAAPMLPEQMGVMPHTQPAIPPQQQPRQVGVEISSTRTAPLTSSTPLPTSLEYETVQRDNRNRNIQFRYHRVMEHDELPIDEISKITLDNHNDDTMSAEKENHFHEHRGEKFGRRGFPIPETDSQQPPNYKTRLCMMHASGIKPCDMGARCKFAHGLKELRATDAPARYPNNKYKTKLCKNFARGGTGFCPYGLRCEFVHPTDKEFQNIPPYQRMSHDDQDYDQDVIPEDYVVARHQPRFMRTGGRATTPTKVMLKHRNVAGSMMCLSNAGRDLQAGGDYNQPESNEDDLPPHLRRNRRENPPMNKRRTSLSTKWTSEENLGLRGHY

[11] = system: BJ; assay: BJ-TERT-LT-ST fibroblast viability loss – cell-based, RAS-independent, luminescence, dose response (AID 1935); assay type: functional; details: Homo sapiens;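 further: BJ fibroblasts immortalized with TERT plus LT and ST oncogenes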
[12] = target: T3, Replicative DNA helicase DnaB (Mycobacterium tuberculosis, UniProt P9WMR3); assay: DnaB intein splicing inhibitors, dose response, biochemical, cell-free fluorescence (AID 449749); assay type: functional
T3 sequence (P9WMR3 whole entry): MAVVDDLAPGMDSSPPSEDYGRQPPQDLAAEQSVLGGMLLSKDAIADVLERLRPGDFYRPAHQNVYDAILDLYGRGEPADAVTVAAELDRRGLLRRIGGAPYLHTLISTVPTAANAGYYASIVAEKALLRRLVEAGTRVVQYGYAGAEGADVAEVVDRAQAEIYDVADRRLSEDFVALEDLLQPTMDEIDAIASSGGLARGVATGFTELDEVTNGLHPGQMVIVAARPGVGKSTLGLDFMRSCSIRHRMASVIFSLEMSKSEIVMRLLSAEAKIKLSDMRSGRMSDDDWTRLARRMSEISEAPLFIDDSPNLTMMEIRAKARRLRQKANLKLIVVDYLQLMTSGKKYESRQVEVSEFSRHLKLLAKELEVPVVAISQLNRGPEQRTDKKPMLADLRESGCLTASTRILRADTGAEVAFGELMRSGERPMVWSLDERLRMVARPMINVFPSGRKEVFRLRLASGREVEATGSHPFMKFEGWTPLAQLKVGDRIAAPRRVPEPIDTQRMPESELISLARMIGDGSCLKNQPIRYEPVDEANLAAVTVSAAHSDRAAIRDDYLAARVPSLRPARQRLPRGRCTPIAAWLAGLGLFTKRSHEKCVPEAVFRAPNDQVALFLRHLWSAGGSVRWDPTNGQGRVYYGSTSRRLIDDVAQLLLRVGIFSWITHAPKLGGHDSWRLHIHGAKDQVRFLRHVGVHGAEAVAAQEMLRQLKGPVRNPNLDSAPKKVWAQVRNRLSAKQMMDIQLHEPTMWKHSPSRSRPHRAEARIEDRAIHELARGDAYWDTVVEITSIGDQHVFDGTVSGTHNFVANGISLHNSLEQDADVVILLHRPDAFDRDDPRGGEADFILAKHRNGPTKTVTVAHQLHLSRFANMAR

[13] = target: T4, Protein RecA (Mycobacterium tuberculosis, UniProt P9WHJ3); assay: Fluorescence Cell-Free Homogeneous Dose Retest to Identify Inhibitors of RecA-Intein Splicing Activity. [Related pubchem assays (depositor defined):AID2097, AID2223, AID489010, AID492950]; assay type: functional
T4 sequence (P9WHJ3 whole entry): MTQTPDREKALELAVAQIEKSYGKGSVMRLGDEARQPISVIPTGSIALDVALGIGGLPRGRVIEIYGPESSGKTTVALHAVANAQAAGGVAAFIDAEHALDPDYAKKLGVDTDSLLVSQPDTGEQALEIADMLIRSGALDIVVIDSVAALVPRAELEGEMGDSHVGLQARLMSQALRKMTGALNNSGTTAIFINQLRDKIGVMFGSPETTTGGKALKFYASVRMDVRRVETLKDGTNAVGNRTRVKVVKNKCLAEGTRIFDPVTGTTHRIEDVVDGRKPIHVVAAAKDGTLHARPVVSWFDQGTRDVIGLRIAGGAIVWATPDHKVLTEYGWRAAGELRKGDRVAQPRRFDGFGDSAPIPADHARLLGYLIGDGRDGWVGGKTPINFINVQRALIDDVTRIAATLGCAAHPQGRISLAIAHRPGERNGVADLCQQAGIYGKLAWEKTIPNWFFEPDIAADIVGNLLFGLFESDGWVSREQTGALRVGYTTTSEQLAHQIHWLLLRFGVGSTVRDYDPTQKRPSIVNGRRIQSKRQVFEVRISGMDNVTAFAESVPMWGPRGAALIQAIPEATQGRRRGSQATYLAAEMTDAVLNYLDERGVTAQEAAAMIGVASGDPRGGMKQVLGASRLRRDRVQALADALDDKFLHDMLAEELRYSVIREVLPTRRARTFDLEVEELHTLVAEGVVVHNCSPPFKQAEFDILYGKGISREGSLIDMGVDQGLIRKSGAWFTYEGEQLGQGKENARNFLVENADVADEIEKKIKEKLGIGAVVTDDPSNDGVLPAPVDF

[14] = system: Streptococcus; assay: GAS UMAA2166 growth inhibition – luminescence, BacTiterGlo, counter-screen for streptokinase expression inhibitor project, dose response (AID 1915); assay type: functional, organism-based;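 further: potency for reduction of bacterial viability or growth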
[15] = system: Streptococcus sp. 'group A'; assay: Streptococcus pyogenes SK(-)GAS viability under kanamycin – luminescence, BacTiterGlo, confirmation, counter-screen for streptokinase expression inhibitor project, dose response (AID 1900); assay type: functional, organism-based
[16] = viability loss in Vero cells – cytotoxicity control for Vif-APOBEC3G degradation inhibitor project, dose response (AID 1117358); assay type: functional; details: Vero
[17] = target: T5, Streptokinase A (Streptococcus pyogenes serotype M1, UniProt P10520); assay: viability-normalized secreted streptokinase activity reduction – plasminogen activation absorbance, OD405, dose response (AID 1914); assay type: functional, Streptococcus pyogenes M1 GAS;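 further: secreted streptokinase activity via plasminogen activation per viability signal from cell pellet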
T5 sequence (P10520 whole entry): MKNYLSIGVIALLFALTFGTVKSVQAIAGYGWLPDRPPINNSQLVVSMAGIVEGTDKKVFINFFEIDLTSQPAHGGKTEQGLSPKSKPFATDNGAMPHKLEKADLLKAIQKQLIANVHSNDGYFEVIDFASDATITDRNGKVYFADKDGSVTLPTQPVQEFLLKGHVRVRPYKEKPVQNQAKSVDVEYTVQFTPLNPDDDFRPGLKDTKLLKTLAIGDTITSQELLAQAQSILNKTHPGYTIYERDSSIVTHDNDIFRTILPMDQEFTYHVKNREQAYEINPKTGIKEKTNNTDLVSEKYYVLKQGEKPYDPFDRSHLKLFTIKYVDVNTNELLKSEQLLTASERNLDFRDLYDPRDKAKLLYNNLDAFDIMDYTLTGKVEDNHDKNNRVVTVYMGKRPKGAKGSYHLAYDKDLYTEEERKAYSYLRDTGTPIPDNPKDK

[18] = target: T6, Heat shock factor protein 1 (Mus musculus, UniProt P38532); assay: decrease of HSF1-responsive luciferase luminescence – cell-based, NIH3T3, dose retest, confirmation (AID 2382); assay type: functional;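 further: NIH3T3 fibroblasts with HSF1-driven luciferase reporter stressed by proteasome inhibitor MG132; luminescence from HSF1-driven luciferase expression after 8 hours of MG132 stress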
T6 sequence (P38532 whole entry): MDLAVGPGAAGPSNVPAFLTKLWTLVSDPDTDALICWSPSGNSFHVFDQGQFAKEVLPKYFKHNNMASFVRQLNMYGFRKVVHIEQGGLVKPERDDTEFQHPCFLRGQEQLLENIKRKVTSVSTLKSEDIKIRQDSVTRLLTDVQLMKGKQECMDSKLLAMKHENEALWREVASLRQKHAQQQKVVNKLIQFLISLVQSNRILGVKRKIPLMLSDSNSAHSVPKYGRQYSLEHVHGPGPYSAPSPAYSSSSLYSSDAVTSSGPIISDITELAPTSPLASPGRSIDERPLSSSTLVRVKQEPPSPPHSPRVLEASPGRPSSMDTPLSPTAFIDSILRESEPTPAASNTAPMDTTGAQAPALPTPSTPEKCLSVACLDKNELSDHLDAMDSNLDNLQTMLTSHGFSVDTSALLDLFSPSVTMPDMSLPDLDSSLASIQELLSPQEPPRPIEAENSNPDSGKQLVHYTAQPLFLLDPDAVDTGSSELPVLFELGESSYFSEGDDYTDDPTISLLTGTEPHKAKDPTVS

[19] = HIV-1 Vif–A3G interaction blockers – biochemical, TR-FRET, GST-Vif 1-94, biotin-A3G peptide, dose response retest, primary screen (AID 1117319); assay type: functional;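 further: TR-FRET signal of purified GST-Vif binding a biotinylated A3G peptide; inhibitors lower the FRET signal by blocking Vif and A3G binding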
[20] = TAG accumulation blockers, Nile Red lipid stain – cell-based, H9c2 rat cardiomyoblasts, Nile Red fluorescence, primary readout, dose response (AID 743161); assay type: functional
[21] = Potency on glucagon-like peptide 1 release, dose-response in NCI-H716 cell line, half maximal inhibitory concentration (AID 1117344); assay type: functional, cell-based
[22] = glucagon-like peptide-1 release potency in STC-1, concentration-response, half-maximal inhibitory concentration in the STC-1 line (AID 1117345); assay type: functional, cell-based

Chain of Genome polyprotein (P29990 2492-3391 limits assumed): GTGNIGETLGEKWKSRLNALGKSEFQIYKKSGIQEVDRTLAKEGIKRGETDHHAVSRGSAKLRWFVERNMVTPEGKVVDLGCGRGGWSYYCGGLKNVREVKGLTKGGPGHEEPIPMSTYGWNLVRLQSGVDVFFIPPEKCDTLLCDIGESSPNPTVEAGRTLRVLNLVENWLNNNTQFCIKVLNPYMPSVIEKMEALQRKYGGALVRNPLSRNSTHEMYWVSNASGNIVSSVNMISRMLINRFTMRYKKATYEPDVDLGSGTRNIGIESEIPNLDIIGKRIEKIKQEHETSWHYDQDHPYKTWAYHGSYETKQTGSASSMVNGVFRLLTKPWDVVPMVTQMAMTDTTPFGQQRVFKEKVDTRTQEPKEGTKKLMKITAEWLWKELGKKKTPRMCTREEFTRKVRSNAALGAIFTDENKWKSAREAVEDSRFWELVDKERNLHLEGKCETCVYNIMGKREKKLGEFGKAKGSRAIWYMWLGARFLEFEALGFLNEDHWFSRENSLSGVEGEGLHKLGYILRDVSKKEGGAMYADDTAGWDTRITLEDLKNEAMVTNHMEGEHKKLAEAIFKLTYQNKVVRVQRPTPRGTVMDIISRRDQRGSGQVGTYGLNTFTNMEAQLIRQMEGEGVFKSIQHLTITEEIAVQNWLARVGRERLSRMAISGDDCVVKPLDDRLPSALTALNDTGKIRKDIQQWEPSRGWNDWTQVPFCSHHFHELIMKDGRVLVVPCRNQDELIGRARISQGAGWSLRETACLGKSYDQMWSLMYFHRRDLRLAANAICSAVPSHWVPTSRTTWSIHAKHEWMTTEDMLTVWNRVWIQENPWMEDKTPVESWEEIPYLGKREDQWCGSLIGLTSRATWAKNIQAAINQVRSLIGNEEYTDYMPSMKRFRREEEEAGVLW
Chain of Protein Tat (P04608 whole entry): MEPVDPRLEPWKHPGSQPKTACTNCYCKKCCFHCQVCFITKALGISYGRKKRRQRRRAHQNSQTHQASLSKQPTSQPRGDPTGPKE
Chain of Glutathione-S-transferase (Q26513 whole entry): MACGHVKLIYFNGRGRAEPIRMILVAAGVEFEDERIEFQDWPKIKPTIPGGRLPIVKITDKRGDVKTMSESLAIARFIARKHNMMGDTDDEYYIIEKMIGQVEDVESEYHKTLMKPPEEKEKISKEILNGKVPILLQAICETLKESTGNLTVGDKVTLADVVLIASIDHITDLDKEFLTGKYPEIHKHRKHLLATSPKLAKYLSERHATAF

With `O=C1C=C(Nc2cccc3cccnc23)c2ccccc2C1=O` the IC50 [1] was > 100 µM (active), the IC50 [2] was 50.4 µM (active) and the EC50 [3] was 47.6 µM (active). For the same compound, the EC50 [4] was 2.77 µM (inconclusive), the CC50 [5] was 4.45 µM (active) and the EC50 [6] was 1.57 µM (inconclusive). For the same compound, the EC50 [7] was 3.05 µM (active), the IC50 [8] was > 100 µM (active) and the CC50 [9] was 0.34 µM (active). The EC50 [10] was 28.7 µM (active), the EC50 [11] was 6.37 µM (inconclusive) and the AC50 [12] was > 380 µM (inactive). The EC50 [13] was 2.89 µM (active).

In the case of `O=C(NC(=S)N1CCN(c2c(Cl)cccc2[N+](=O)[O-])CC1)c1cccs1`, the EC50 [14] was 10.2 µM (active), the EC50 [15] was 4.51 µM (active) and the CC50 [16] was > 40 µM (active). For the same compound, the EC50 [17] was > 150 µM (not active) and the EC50 [18] was > 195 µM (not active).

With `COc1cc(O)oc1/C=N/c1ccccc1` the IC50 [19] was > 100 µM (active).

In the case of `COCCN1Cc2cccc(C(=O)NCc3cccc(N(C)C)c3)c2C1=O`, the IC50 [20] was > 50 µM (active).

In the case of `CCN(CC)CCOC(=O)C(Cc1cccc2ccccc12)CC1CCCO1` (configuration not stated) [NAFRONYL OXALATE], the IC50 [21] was > 40 µM (inactive) and the IC50 [22] was > 40 µM (inactive).
